Several values for one entry are separate records, joined by “and”; a condition that tells them apart may be missing. Equal values may be shown once.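 How tested: cells in 96-well plates exposed to compound for 48 hours at five concentrations. The concentration for 50% growth inhibition is given as GI50. The concentration for full growth arrest is given as TGI.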

Test in all cases: inhibition of tumour cell growth, NCI panel, 48 h
The subject of assay [1] is HCC-2998 colon.
Assay [2] deals with SF-295 CNS.
For assay [3], the system named is M14 melanoma.
The test system of assay [4] is HL-60(TB) leukemia.
The subject of assay [5] is U251 CNS.
For assay [6], the system named is TK-10 renal.
The test system of assay [7] is A549 NSCLC.
In assay [8] the test system is SK-MEL-2 melanoma.
For assay [9], the system named is OVCAR-3 ovarian.
Assay [10] concerns SF-539 CNS.

Consider `COc1cc(-c2oc3c(OC)c(O)cc(O)c3c(=O)c2OC)ccc1O`, for which the TGI in assay [1] is 50.4 µM; in assay [2] it was 76.2 µM; in [3], greater than 31.3 µM; in [4], greater than 33.3 µM; in assay [5] it was greater than 62.5 µM; in assay [6], 69.6 µM. Besides, the TGI in assay [7] was greater than 100 µM; in assay [8], 15.3 µM; in assay [9] it was 22.3 µM; in [10], greater than 50.2 µM.
Regarding `COC(=O)c1nc(N)nc(C(=O)OC)c1C(=O)c1ccccc1`, the TGI in [1], in assay [2], in assay [3], in [4], in assay [5] and in [6] was greater than 100 µM each time. Further, the TGI in assay [7], in assay [8], in assay [9] and in [10] was greater than 100 µM each time.
As for `CN(C)N=Nc1nn(C(=O)Nc2ccc(Cc3ccccc3)cc2)c2ccccc12`, the GI50 in assay [1] was 0.802 µM; in assay [2], 0.225 µM; in [3], 0.168 µM; in [4] it was 25.2 µM; in assay [6], greater than 100 µM; in assay [7], 3.9 µM. Moreover, the GI50 was 2.07 µM in assay [8], 11.8 µM in assay [9] and 1.46 µM in [10]. Moreover, the TGI in assay [1] was greater than 47.7 µM; in assay [2], 3.12 µM; in [3], greater than 100 µM; in assay [4] it was greater than 100 µM; in [5] it was greater than 100 µM; in assay [6], greater than 100 µM. Further, the TGI is greater than 100 µM in assay [7], greater than 100 µM in [8], greater than 100 µM in [9] and greater than 23.7 µM in assay [10].
As for `O=C1NC(SCc2ccc(F)cc2)=N/C1=C/c1cccc(OCc2ccc(Cl)cc2)c1`, the GI50 in [1] is 51.1 µM; in assay [2] it was 4.97 µM; in assay [3] it was 47.4 µM; in assay [4], greater than 100 µM; in assay [5] it was 3.83 µM; in [6] it was 6.07 µM. The GI50 is 6.61 µM in assay [7], greater than 100 µM in assay [8], 5.08 µM in assay [9] and 4.87 µM in [10]. The TGI is greater than 100 µM in assay [1]; greater than 100 µM in [2]; greater than 100 µM in assay [3]; greater than 100 µM in assay [4]; 19.6 µM in assay [5]; 87.8 µM in assay [6]. Besides, the TGI in [7] was greater than 100 µM; in [8] it was greater than 100 µM; in assay [9], 31.5 µM; in assay [10], 72.2 µM.
For the compound `Cc1cc(Cl)ccc1NC(=O)C(=O)Cc1occc(=O)c1O`, the TGI in [1], in [2], in assay [3], in assay [4], in assay [5] and in assay [6] was greater than 100 µM in each case. The TGI in assay [7], in assay [8] and in assay [10] was greater than 100 µM in each case.
Take `Nc1cc(-c2ccccc2)n(C(=O)Nc2ccc(Oc3ccccc3)cc2)n1`: the GI50 was greater than 100 µM in assay [1]; 40.2 µM in assay [2]; greater than 100 µM in assay [3]; 47.8 µM in assay [4]; 32.1 µM in assay [5]; 69.7 µM in [6]. Further, the GI50 is 27.8 µM in assay [7], greater than 100 µM in assay [8], 31.3 µM in assay [9] and 30.1 µM in assay [10]. The TGI in [1], in [2], in [3], in [4], in assay [5] and in assay [6] was greater than 100 µM throughout. Also, the TGI in assay [7], in assay [8], in [9] and in [10] was greater than 100 µM each time.
Take `COc1ccc(OC)c(/C=N/N=C2\C(=O)Nc3c(Cl)cc(Cl)cc32)c1`: the TGI in assay [1], in assay [2], in assay [3], in assay [4], in assay [5] and in assay [6] was greater than 100 µM in each case. Further, the TGI is greater than 100 µM in assay [7], 68.8 µM in assay [8], greater than 100 µM in [9] and greater than 100 µM in [10].
With `CC1=NN(C(=O)c2nn(-c3ccc(Cl)cc3)cc2O)C(=O)C1`, the GI50 in assay [1] is 3.37 µM; in assay [2] it was 0.285 µM; in [3], 2.8 µM; in [4] it was 1.17 µM; in [5] it was 0.734 µM; in assay [6], 0.578 µM. For the same compound, the GI50 in assay [7] was 2.92 µM; in [8], 53.7 µM; in assay [9], 1.34 µM; in assay [10] it was 1.9 µM. The TGI was greater than 100 µM in [1]; greater than 53.5 µM in assay [3]; 7.46 µM in [4]; greater than 100 µM in assay [5]; greater than 100 µM in assay [6]; greater than 100 µM in [7]. Also, the TGI in assay [8] was greater than 100 µM; in assay [9], greater than 27.9 µM; in assay [10] it was greater than 87.4 µM.
With `c1ccc(/C(=N\Nc2ccc3ccccc3n2)c2ccccn2)cc1`, the GI50 was 0.904 µM in assay [1]; 0.211 µM in [2]; 0.484 µM in assay [3]; 0.235 µM in assay [4]; 0.592 µM in assay [5]; 0.372 µM in [6]. Also, the GI50 is 1.11 µM in assay [7], 0.604 µM in [8], 0.291 µM in assay [9] and 0.682 µM in assay [10]. In addition, the TGI in assay [1] turned out to be 16.7 µM; in assay [2], 2.13 µM; in [3] it was 4.44 µM; in assay [4] it was 0.775 µM; in [5], 13 µM; in assay [6], 5.31 µM. In addition, the TGI in assay [7] was greater than 36.2 µM; in assay [8] it was 7.4 µM; in assay [9], 2.49 µM; in assay [10] it was 4.57 µM.
Regarding `Cc1ccc(-c2c3c(N)c4c(nc3nc3c2c(C)nn3-c2ccccc2)CCC4)cc1`, the GI50 in assay [1] is 3 µM; in assay [2] it was 7.45 µM; in [3] it was 6.25 µM; in [4], 2.07 µM; in [5] it was 1.95 µM; in assay [6], 2.43 µM. The GI50 in assay [7] is 2.5 µM; in assay [8], 21.1 µM; in assay [9], 1.96 µM; in [10], 1.86 µM. For the same compound, the TGI came to 8.43 µM in assay [1]; 21.9 µM in [2]; 20.1 µM in [3]; 4.67 µM in assay [4]; 4.01 µM in assay [5]; 5.42 µM in [6]. Besides, the TGI was found to be 7.49 µM in assay [7], 42.6 µM in [8], 3.86 µM in assay [9] and 3.46 µM in assay [10].
As to `Cn1c2ccccc2c2[nH]c3ccccc3c(=O)c21`, the TGI in [1], in [2], in assay [3], in [4], in assay [5] and in assay [6] was greater than 100 µM throughout. Further, the TGI in assay [7], in assay [8], in assay [9] and in assay [10] was greater than 100 µM each time.
Take `O=C(CC(=O)c1ccccc1)C(=O)NC12CC3CC(CC(C3)C1)C2`: the TGI was greater than 100 µM in assay [1]; greater than 100 µM in [2]; greater than 100 µM in assay [3]; greater than 69.1 µM in assay [4]; greater than 100 µM in [5]; greater than 100 µM in [6]. For the same compound, the TGI in assay [7], in assay [8], in assay [9] and in assay [10] was greater than 100 µM throughout.
As for `Cc1ccccc1NC(=O)c1cc2ccccc2cc1O`, the GI50 in [1] is 4.4 µM; in assay [2], 3.03 µM; in assay [3], 4.08 µM; in [4], 2.5 µM; in [5], 3.56 µM; in [6] it was 4.2 µM. The GI50 is 3.48 µM in [7], 3.33 µM in assay [8], 2.56 µM in assay [9] and 3.55 µM in assay [10]. The TGI in assay [1] was 26.2 µM; in assay [2], 24.2 µM; in [3] it was greater than 100 µM; in assay [4], 7.34 µM; in assay [5], greater than 100 µM; in [6], greater than 100 µM. Moreover, the TGI in assay [7] was greater than 100 µM; in assay [8], 8.05 µM; in [9], 7.77 µM; in assay [10] it was 24.1 µM.
For the compound `COc1cc2c3cc1Oc1c(OC)c(OC)cc4c1C(Cc1ccc(cc1)Oc1cc(ccc1O)CC3N(C)CC2)N(C)CC4` (stereo not given), the GI50 in assay [1] is 11.7 µM and 2.71 µM; in [2], 15.4 µM and 7.68 µM; in [4] it was 5.61 µM and 1.88 µM; in [10] it was 11.4 µM and 1.56 µM. Besides, the TGI in assay [1] is 25 µM and 11.7 µM; in [2], 28.9 µM and 21.4 µM; in [3], 4.27 µM and 4.79 µM; in assay [4], 30.5 µM and 7.29 µM; in [5], 23.8 µM and 30.5 µM; in assay [6], 45 µM and 25.9 µM. The TGI in [7] was 39.6 µM and 25.2 µM; in assay [8], 27 µM and 24.8 µM; in [9] it was 29.1 µM and 62.8 µM; in [10] it was 23.6 µM and 3.81 µM.
Regarding `CCSC(=O)C1(C)OC2CCCCC2C1=O` (stereo not given), the TGI in assay [1], in [3], in assay [4], in assay [5], in [6] and in [7] was greater than 100 µM each time. The TGI in assay [8] and in [10] was greater than 100 µM each time.
With `Cc1cccc(N=C2NC(=O)C(CC(=O)Nc3ccccc3Cl)S2)c1` (stereo not given), the TGI in [1], in assay [2], in [3], in [4], in assay [6] and in assay [7] was greater than 100 µM throughout. Also, the TGI in [8], in [9] and in assay [10] was greater than 100 µM throughout.
In the case of `CCc1c2c(nc3ccc(OCc4ccc(B5OC(C)(C)C(C)(C)O5)cc4)cc13)-c1cc3c(c(=O)n1C2)COC(=O)[C@]3(O)CC`, the GI50 in [1] is 0.185 µM; in assay [3] it was 0.0141 µM; in assay [4], 0.0291 µM; in assay [5], less than 0.01 µM; in assay [6], 1.83 µM; in assay [7] it was 0.06 µM. The GI50 in [8] was 0.825 µM; in [9], 0.215 µM; in [10] it was less than 0.0109 µM. Further, the TGI in [1] is greater than 100 µM; in assay [6], greater than 100 µM; in assay [7], greater than 100 µM; in [8], greater than 24.6 µM; in [9], greater than 100 µM; in assay [10] it was 0.131 µM.
Turning to `NNC(=S)N/N=C(/C(=O)Nc1ccc([N+](=O)[O-])cc1)c1nc2ccc([N+](=O)[O-])cc2[nH]c1=O`, the TGI in assay [1], in [2], in assay [3], in assay [4], in assay [5] and in assay [6] was greater than 100 µM throughout. The TGI in [7], in assay [8] and in assay [10] was greater than 100 µM throughout.
For the compound `O=c1cc(-c2ccc(O)cc2)oc2cc(O)cc(O)c12`, the TGI in assay [1] is 56.8 µM; in assay [2], 83.4 µM; in assay [3] it was greater than 100 µM; in [4] it was greater than 100 µM; in assay [5] it was greater than 100 µM; in [6], greater than 100 µM. Further, the TGI in [7] was greater than 100 µM; in assay [8] it was 80.3 µM; in assay [9], 91.9 µM.
`CC1CC(=O)c2c(ccc3c2C(=O)c2cccc(O)c2C3=O)C1` (stereo not given): the TGI in assay [1] is 23.2 µM; in [2] it was 23.2 µM; in [3] it was 10.7 µM; in [4], 18.1 µM; in assay [5], 26.5 µM; in assay [7] it was 26.4 µM. Further, the TGI was found to be 22.6 µM in assay [8], 16.5 µM in assay [9] and 29.5 µM in assay [10].
